Patent US20090326003A1, “PYRAZOLO (3, 4-B) PYRIDINE DERIVATIVES AS PDE4 INHIBITORS” (priority 2006, published 2009)

biological target: T1, PDE4B (human recombinant) (Homo sapiens, UniProt Q07343); assay: PDE4B inhibition, fluorescence polarisation (FP) and/or SPA assay; type: biochemical; conditions: n=1 or average of 2 or more readings, accuracy ±about 0.5 log unit, read-out: PDE4B pIC50 (generally in FP assay) (±about 0.5) (converted)
T1 construct: made in house
Summary of the method: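 Human recombinant PDE4B (yeast-expressed, HSPDE4B2B variant) preincubated with compound 10-30 min at ambient temperature; SPA with ~10 nM [3H]cAMP, 1 h, Tris-HCl pH 7.5, ≤20% hydrolysis; or IMAP FP with ~40 nM fluorescein-cAMP, Tris-HCl pH 7.2. pIC50 from 10-point curves (1.5 nM-30 uM).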

T1 sequence (Q07343 1-564 isoform Q07343-2): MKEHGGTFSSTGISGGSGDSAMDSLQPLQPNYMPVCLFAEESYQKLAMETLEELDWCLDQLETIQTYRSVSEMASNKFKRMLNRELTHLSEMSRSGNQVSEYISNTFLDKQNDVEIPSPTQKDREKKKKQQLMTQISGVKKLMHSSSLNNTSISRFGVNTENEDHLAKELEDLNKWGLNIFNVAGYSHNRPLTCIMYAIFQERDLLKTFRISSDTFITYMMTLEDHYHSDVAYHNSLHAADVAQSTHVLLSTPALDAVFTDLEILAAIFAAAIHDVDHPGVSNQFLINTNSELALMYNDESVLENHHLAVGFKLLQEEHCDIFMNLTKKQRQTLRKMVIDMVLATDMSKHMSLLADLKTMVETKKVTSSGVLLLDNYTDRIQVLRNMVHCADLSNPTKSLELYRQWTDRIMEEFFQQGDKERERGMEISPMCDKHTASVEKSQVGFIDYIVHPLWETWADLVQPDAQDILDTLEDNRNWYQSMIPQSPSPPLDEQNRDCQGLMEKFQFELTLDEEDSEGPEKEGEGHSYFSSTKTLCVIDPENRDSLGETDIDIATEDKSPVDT

IC50 | Structure (SMILES)
~39.8 pM | CCc1nc2c(cnn2CC)c(NC2CCOCC2)c1CNC(=O)c1ccc(C(=O)NCc2c(CC)nc3c(cnn3CC)c2NC2CCOCC2)o1 [Example 35, N,N′-bis{[1,6-diethyl-4-(tetrahydro-2H-pyran-4-ylamino)-1H-pyrazolo[3,4-b]pyridin-5-yl]methyl}-2,5furandicarboxamide]
~100 pM | CCn1ncc2c(NC3CCOCC3)c(CNC(=O)c3cccc(-c4cccc(C(=O)NCc5c(C)nc6c(cnn6CC)c5NC5CCOCC5)c4)c3)c(C)nc21 [Example 29, N,N′-bis{[1-ethyl-6-methyl-4-(tetrahydro-2H-pyran-4-ylamino)-1H-pyrazolo[3,4-b]pyridin-5-yl]methyl}-3,3′-biphenyldicarboxamide]
~158 pM | CCc1nc2c(cnn2CC)c(NC2CCOCC2)c1CNC(=O)c1ccc(-c2ccc(C(=O)NCc3c(CC)nc4c(cnn4CC)c3NC3CCOCC3)cc2)cc1 [Example 23, N,N′-bis{[1,6-diethyl-4-(tetrahydro-2H-pyran-4-ylamino)-1H-pyrazolo[3,4-b]pyridin-5-yl]methyl}-4,4′-biphenyldicarboxamide]
